The conditions of data set [1]: mouse, in vivo.
Method: Animals were intragastrically gavaged with a bolus (2 g/kg) of either labeled ^13C2-Butyrate or non-labeled ^12C-Butyrate. The small and large intestines were then harvested 6 hours later and prepared for analysis as above. […] The ratio of the labeled to unlabeled peak areas were adjusted to incorporate natural distribution of ^13C label and expressed as percentage of ^13C incorporation into the butyrate pool in the luminal contents (Lumen) and intestinal tissue.
It was next determined whether there was a difference in the uptake and metabolism of the exogenously administered butyrate between the syngeneic and allogeneic recipients. To this end, metabolic flux analysis (MFA) assessing label incorporation of heavy 13C labeled butyrate into luminal and intestinal tissue butyrate pools was performed by utilizing GC/MS as above. Recipients of syngeneic and allogeneic transplant were treated 7 days after BMT with a bolus of either^13C-butyrate or regular ^12C-butyrate, which served as the control. The IECs and luminal contents were harvested 6 hours later and analyzed for incorporation of ^13C.
Data set [2] concerns SLC5A8. Description: Primary IECs cultured with proinflammatory mediators. As to conditions: primary IECs exposed to IFN-γ and/or TNF. Type of data set: cell-based, mouse. Here is the method: It was next explored whether the diminished concentration of butyrate observed in the intestinal tissue was from impaired uptake of butyrate following allo-BMT. To this end, the expression of the known butyrate monocarboxylate transporter (SLC5A8) and the receptor of butyrate (GPR43) was analyzed in IECs following allo-BMT (Ganapathy, V., Thangaraju, M., Prasad, P. D., Martin, P. M. & Singh, N. Transporters and receptors for short-chain fatty acids as the molecular link between colonic bacteria and the host. Curr Opin Pharmacol 13, 869-874 (2013); Furusawa, Y. et al. Commensal microbe-derived butyrate induces the differentiation of colonic regulatory T cells. Nature (2013)). […] Primary IECs were cultured with proinflammatory mediators (IFN-γ and/or TNF) and expression of the butyrate transporter SLC5A8 was analyzed.

The mark [3] stands for this setting: IECs from large intestine, allogeneic vs syngeneic recipients.

For the molecule `CC[13CH2][13C](=O)[O-].[Na+]` [^13C-butyrate, Sodium butyrate-1,2-^13C2], the “13C heavy butyrate in the intestinal tissue” value in data set [1] is given as “significantly decreased”. Moreover, under setting [3], the “heavy carbon in malate” value is “significant difference” and the incorporation into succinate entry was “trend towards greater incorporation”. For the same molecule, the “13C incorporation in malate” value (IECs from small and large intestines combined, allo-BMT vs syngeneic) is on record as “overall increased level”.

B1: IFN-γ: proinflammatory mediator (protein, UniProt P01579 24-161, looked up)
Interferon gamma: QDPYVKEAENLKKYFNAGHSDVADNGTLFLGILKNWKEESDRKIMQSQIVSFYFKLFKNFKDDQSIQKSVETIKEDMNVKFFNSNKKKRDDFEKLTNYSVTDLNVQRKAIHELIQVMAELSPAAKTGKRKRSQMLFRG
As to B1, the “expression of Slc5a8” value in data set [2] is recorded as “significantly decreased”.
